# Where “and” joins values, the source holds several entries; their conditions need not be identical. Equal values may be shown once. Read-outs that look alike come from different tables or passages of the source.
# Experiments:
# mu opioid receptor = mu opioid receptor (Homo sapiens, UniProt P35372); assay: Filtration binding assay: mu opioid receptor
# kappa opioid receptor = kappa opioid receptor (Homo sapiens, UniProt P41145); assay: Filtration binding assay: kappa opioid receptor
# Long-Evans Hooded rats [1] = assay: Stress induced hyperthermia (SIH) in vivo assay, rectal temperature; parameters: species or system rat
# Method: (§1) Male Long-Evans Hooded rats weighing 180 to 200 grams at the time of purchase were obtained from Charles River Laboratories (Raleigh, N.C.). Upon arrival, the animals were group housed four per cage in quarantine for 5 days in wire-mesh cages at an ambient temperature of 21 to 23° C. with an automated 12/12 hour light/dark cycle and ad libitum access to water and a commercial rodent chow. The rats were then transferred to a general housing room for a one-week acclimation with housing and environmental conditions, and 12/12 hour light/dark cycle conditions. Animals were fasted overnight (18 hours) prior to experiment.
# […] One hour after dosing, baseline rectal temperatures were recorded for each rat. Rats were then immediately isolated in shoebox cages with ALPHA-DRY bedding. Rectal temperatures were then recorded at 15 min, 30 min, and 45 min after isolation (i.e., 1 hr 15 min, 1 hr 30 min, and 1 hr 45 minutes after test compound or vehicle administration). All experiments were conducted during the light cycle. After completion of the behavioral portion of the study, each animal was killed via decapitation using a guillotine and trunk blood was collected in 5 mL vacutainer tube containing EDTA and placed on ice. The samples were then centrifuged at 3800 RPM for 10 minutes and plasma was removed and placed on dry ice in an Eppendorff sample tube. Plasma samples were stored at −80° C. and later used for determining ACTH, corticosterone, and glucose levels. Plasma samples were outsourced to Anilytics, Inc. for determination of plasma levels of ACTH, coricosterone, and glucose. A Mann-Whitney U t-test (one-tailed) was used for statistical analysis of behavioral data and an unpaired t-test (one-tailed) was used for analysis of plasma ACTH, corticosterone, and glucose levels.
# Compound #438 was suspended in an aqueous vehicle comprised of 0.5% (w/v) methylcellulose (15 centipoises) solution.
# Long-Evans Hooded rats [2] = assay: Plasma stress hormone levels (ACTH, corticosterone, glucose) after SIH; type: in vivo, rat; settings: p.o.
# Method: as §1
# On the day of experiment, group-housed (4/group) Long-Evans Hooded rats were divided into various treatment groups (N=8 to 32) and test compound at 0.03-3.0 mg/kg or vehicle was administered orally (p.o.) by gavage in a dose volume equivalent to 5 mL/kg. One hour after dosing, baseline rectal temperatures were recorded for each rat. Rats were then immediately isolated in shoebox cages with ALPHA-DRY bedding. Rectal temperatures were then recorded at 15 min, 30 min, and 45 min after isolation (i.e., 1 hr 15 min, 1 hr 30 min, and 1 hr 45 minutes after test compound or vehicle administration). All experiments were conducted during the light cycle. […]
# Long-Evans Hooded rats [3] = settings: rat, in vivo, po; for Total Entries (EPM), % Change / Total Entries (EPM), Mean: male, Long-Evans Hooded
# Long-Evans Hooded rats [4] = settings: male, rat, in vivo, po
# Chain of mu opioid receptor (P35372 whole entry): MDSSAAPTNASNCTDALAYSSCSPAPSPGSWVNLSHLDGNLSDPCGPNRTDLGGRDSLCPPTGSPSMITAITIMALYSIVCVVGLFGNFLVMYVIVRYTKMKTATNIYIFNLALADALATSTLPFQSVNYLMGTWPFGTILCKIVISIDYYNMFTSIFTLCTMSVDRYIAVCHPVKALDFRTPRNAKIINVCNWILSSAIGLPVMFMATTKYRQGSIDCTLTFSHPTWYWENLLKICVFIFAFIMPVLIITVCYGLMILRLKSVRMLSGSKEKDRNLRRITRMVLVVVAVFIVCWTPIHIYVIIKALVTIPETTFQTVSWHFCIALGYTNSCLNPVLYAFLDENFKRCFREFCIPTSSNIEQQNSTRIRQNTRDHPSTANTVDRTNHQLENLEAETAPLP
# Chain of kappa opioid receptor (P41145 whole entry): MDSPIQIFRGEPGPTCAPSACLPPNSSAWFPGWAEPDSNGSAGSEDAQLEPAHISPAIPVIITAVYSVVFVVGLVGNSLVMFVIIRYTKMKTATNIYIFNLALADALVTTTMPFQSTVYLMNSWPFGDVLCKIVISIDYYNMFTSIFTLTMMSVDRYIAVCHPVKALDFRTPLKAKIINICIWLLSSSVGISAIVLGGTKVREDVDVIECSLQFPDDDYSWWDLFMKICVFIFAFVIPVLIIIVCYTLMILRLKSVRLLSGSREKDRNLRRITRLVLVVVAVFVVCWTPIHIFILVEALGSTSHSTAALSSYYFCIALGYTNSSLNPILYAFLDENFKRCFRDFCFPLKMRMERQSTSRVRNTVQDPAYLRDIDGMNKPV
compound,measurement,setting,value
"Cc1cccc2cccc(CN3CCC4(CC3)C(=O)N(C[C@H](O)CN)CN4c3ccc(F)cc3)c12 [Compound #438, 3-(3-Amino-2-(R)-hydroxy-propyl)-1-(4-fluoro-phenyl)-8-(8-methyl-naphthalen-1-ylmethyl)-1,3,8-triaza-spiro[4.5]decan-4-one]",IC50,mu opioid receptor,> 10 µM
same,IC50,kappa opioid receptor,> 10 µM
same,"Rectal Temp., Mean","Long-Evans Hooded rats [1]; 0.03 mg/kg p.o., 0 (Basal), 1 hr after dosing",37.5 °C
same,"Rectal Temp., Mean","Long-Evans Hooded rats [1]; 0.03 mg/kg p.o., 15 min after isolation",38.7 °C
same,"Rectal Temp., Mean","Long-Evans Hooded rats [1]; 0.03 mg/kg p.o., 30 min after isolation",38.6 °C
same,"Rectal Temp., Mean","Long-Evans Hooded rats [1]; 0.03 mg/kg p.o., 45 min after isolation",38.4 °C
same,"Rectal Temp., Mean","Long-Evans Hooded rats [1]; 0.1 mg/kg p.o., 0 (Basal), 1 hr after dosing",37.2 °C
same,"Rectal Temp., Mean","Long-Evans Hooded rats [1]; 0.1 mg/kg p.o., 15 min after isolation",38.4 °C
same,"Rectal Temp., Mean","Long-Evans Hooded rats [1]; 0.1 mg/kg p.o., 30 min after isolation",38.5 °C
same,"Rectal Temp., Mean","Long-Evans Hooded rats [1]; 0.1 mg/kg p.o., 45 min after isolation",38.5 °C
same,"Rectal Temp., Mean","Long-Evans Hooded rats [1]; 0.3 mg/kg p.o., 0 (Basal), 1 hr after dosing",37.4 °C
same,"Rectal Temp., Mean","Long-Evans Hooded rats [1]; 0.3 mg/kg p.o., 15 min after isolation",38.4 °C
same,"Rectal Temp., Mean","Long-Evans Hooded rats [1]; 0.3 mg/kg p.o., 30 min after isolation",38.5 °C
same,"Rectal Temp., Mean","Long-Evans Hooded rats [1]; 0.3 mg/kg p.o., 45 min after isolation",38.3 °C
same,"Rectal Temp., Mean","Long-Evans Hooded rats [1]; 1.0 mg/kg p.o., 0 (Basal), 1 hr after dosing",37.1 °C
same,"Rectal Temp., Mean","Long-Evans Hooded rats [1]; 1.0 mg/kg p.o., 15 min after isolation",38.4 °C
same,"Rectal Temp., Mean","Long-Evans Hooded rats [1]; 1.0 mg/kg p.o., 30 min after isolation",38.5 °C
same,"Rectal Temp., Mean","Long-Evans Hooded rats [1]; 1.0 mg/kg p.o., 45 min after isolation",38.2 °C
same,"Rectal Temp., Mean","Long-Evans Hooded rats [1]; 3.0 mg/kg p.o., 0 (Basal), 1 hr after dosing",37.0 °C
same,"Rectal Temp., Mean","Long-Evans Hooded rats [1]; 3.0 mg/kg p.o., 15 min after isolation",38.2 °C
same,"Rectal Temp., Mean","Long-Evans Hooded rats [1]; 3.0 mg/kg p.o., 30 min after isolation",38.4 °C
same,"Rectal Temp., Mean","Long-Evans Hooded rats [1]; 3.0 mg/kg p.o., 45 min after isolation",38.2 °C
same,rectal temperature in the SIH model,"Long-Evans Hooded rats [1]; p.o., at 0.03 mg/kg, 0.01 mg/kg, 0.3 mg/kg, 1.0 mg/kg and 3.0 mg/kg",attenuation of rectal temperature
same,changes in the plasma levels of corticosterone,Long-Evans Hooded rats [2],not statistically significant
same,reduction in plasma ACTH levels,"Long-Evans Hooded rats [2]; 0.3 mg/kg, P=0.0170",25%
same,"Total Entries (EPM), % Change",Long-Evans Hooded rats [3]; 0.03 mg/kg,1.0%
same,"Total Entries (EPM), Mean",Long-Evans Hooded rats [3]; 0.03 mg/kg,102.0
same,"Total Entries (EPM), % Change",Long-Evans Hooded rats [3]; 10 mg/kg,−6.4%
same,"Total Entries (EPM), Mean",Long-Evans Hooded rats [3]; 10 mg/kg,94.5
same,"Total Entries (EPM), % Change",Long-Evans Hooded rats [3]; 30 mg/kg,−14.6%
same,"Total Entries (EPM), Mean",Long-Evans Hooded rats [3]; 30 mg/kg,86.3
same,"% Open Arm Entries (EPM), % Change",Long-Evans Hooded rats [3]; 0.03 mg/kg,−11.1%
same,"% Open Arm Entries (EPM), Mean",Long-Evans Hooded rats [3]; 0.03 mg/kg,5.14%
same,"% Open Arm Time (EPM), % Change",Long-Evans Hooded rats [3]; 0.03 mg/kg,−18.8%
same,"% Open Arm Time (EPM), Mean",Long-Evans Hooded rats [3]; 0.03 mg/kg,6.67%
same,"% Open Arm Entries (EPM), % Change",Long-Evans Hooded rats [3]; 0.1 mg/kg,34.4% and 40.4%
same,"% Open Arm Entries (EPM), Mean",Long-Evans Hooded rats [3]; 0.1 mg/kg,7.77% and 9.17%
same,"% Open Arm Time (EPM), Mean",Long-Evans Hooded rats [3]; 0.1 mg/kg,12.1% and 17.2%
same,"% Open Arm Entries (EPM), % Change",Long-Evans Hooded rats [3]; 0.3 mg/kg,54.8% and 80.7%
same,"% Open Arm Entries (EPM), Mean",Long-Evans Hooded rats [3]; 0.3 mg/kg,8.95% and 11.8%
same,"% Open Arm Time (EPM), Mean",Long-Evans Hooded rats [3]; 0.3 mg/kg,13.8% and 21.8%
same,"% Open Arm Entries (EPM), % Change",Long-Evans Hooded rats [3]; 1 mg/kg,72.1% and 46.6%
same,"% Open Arm Entries (EPM), Mean",Long-Evans Hooded rats [3]; 1 mg/kg,9.95% and 9.57%
same,"% Open Arm Time (EPM), % Change",Long-Evans Hooded rats [3]; 1 mg/kg,80.3% and 89.7%
same,"% Open Arm Time (EPM), Mean",Long-Evans Hooded rats [3]; 1 mg/kg,14.8% and 15.1%
same,"% Open Arm Entries (EPM), % Change",Long-Evans Hooded rats [3]; 3 mg/kg,44.3% and 37.8%
same,"% Open Arm Entries (EPM), Mean",Long-Evans Hooded rats [3]; 3 mg/kg,8.34% and 9.0%
same,"% Open Arm Time (EPM), Mean",Long-Evans Hooded rats [3]; 3 mg/kg,12.4% and 16.9%
same,"% Open Arm Entries (EPM), % Change",Long-Evans Hooded rats [3]; 10 mg/kg,11.1%
same,"% Open Arm Entries (EPM), Mean",Long-Evans Hooded rats [3]; 10 mg/kg,6.4%
same,"% Open Arm Time (EPM), % Change",Long-Evans Hooded rats [3]; 10 mg/kg,0.9%
same,"% Open Arm Time (EPM), Mean",Long-Evans Hooded rats [3]; 10 mg/kg,8.14%
same,"% Open Arm Entries (EPM), % Change",Long-Evans Hooded rats [3]; 30 mg/kg,15.1%
same,"% Open Arm Entries (EPM), Mean",Long-Evans Hooded rats [3]; 30 mg/kg,6.65%
same,"% Open Arm Time (EPM), % Change",Long-Evans Hooded rats [3]; 30 mg/kg,−60.9%
same,"% Open Arm Time (EPM), Mean",Long-Evans Hooded rats [3]; 30 mg/kg,3.21%
same,"Horizontal Activity (SMA), % Change",Long-Evans Hooded rats [4]; 0.03 mg/kg,9.9%
same,"Horizontal Activity (SMA), Mean",Long-Evans Hooded rats [4]; 0.03 mg/kg,3565
same,"Vertical Movement (SMA), % Change",Long-Evans Hooded rats [4]; 0.03 mg/kg,12.5%
same,"Vertical Movement (SMA), Mean",Long-Evans Hooded rats [4]; 0.03 mg/kg,54.8
same,"Horizontal Activity (SMA), % Change",Long-Evans Hooded rats [4]; 10 mg/kg,−4.0%
same,"Horizontal Activity (SMA), Mean",Long-Evans Hooded rats [4]; 10 mg/kg,3115
same,"Vertical Movement (SMA), % Change",Long-Evans Hooded rats [4]; 10 mg/kg,11.9%
same,"Vertical Movement (SMA), Mean",Long-Evans Hooded rats [4]; 10 mg/kg,54.5
same,"Horizontal Activity (SMA), % Change",Long-Evans Hooded rats [4]; 30 mg/kg,−15.8%
same,"Horizontal Activity (SMA), Mean",Long-Evans Hooded rats [4]; 30 mg/kg,2730
same,"Vertical Movement (SMA), % Change",Long-Evans Hooded rats [4]; 30 mg/kg,−7.0%
same,"Vertical Movement (SMA), Mean",Long-Evans Hooded rats [4]; 30 mg/kg,45.3
